Laboratory results as given in patent publication US10017767B2, “Targets in multiple myeloma and other disorders” (FONDAZIONE CENTRO SAN RAFFAELE, priority 2012, dated 2018).

Legend:
STK4 = target: T1, STK4 (Homo sapiens, UniProt Q13043); experiment: STK4 biochemical kinase inhibition
T1 sequence (Q13043 1-487): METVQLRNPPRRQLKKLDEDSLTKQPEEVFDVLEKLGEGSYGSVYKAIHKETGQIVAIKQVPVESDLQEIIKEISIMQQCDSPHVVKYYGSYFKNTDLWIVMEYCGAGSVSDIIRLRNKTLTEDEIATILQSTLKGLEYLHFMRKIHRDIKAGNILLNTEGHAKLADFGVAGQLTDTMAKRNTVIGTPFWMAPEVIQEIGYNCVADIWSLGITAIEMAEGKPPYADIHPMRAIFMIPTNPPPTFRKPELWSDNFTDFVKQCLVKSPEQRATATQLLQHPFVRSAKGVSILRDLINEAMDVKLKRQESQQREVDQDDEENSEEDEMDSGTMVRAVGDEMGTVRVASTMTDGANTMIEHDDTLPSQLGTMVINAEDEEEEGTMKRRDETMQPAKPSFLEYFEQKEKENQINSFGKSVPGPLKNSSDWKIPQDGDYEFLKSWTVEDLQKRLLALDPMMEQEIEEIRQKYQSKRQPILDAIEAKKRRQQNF

MM cell lines = experiment: Cell growth in a large panel of MM cell lines; format: cell-based
YAP1 = YAP1 levels in MM cells after treatment; format: cell-based
Protocol: MM cells were harvested and lysed using lysis buffer: 50 mMTris-HCl (pH 7.4), 150 mM NaCl, 1% NP-40, 5 mM EDTA, 5 mM NaF, 2 mM Na3VO4, 1 mM PMSF, 5 μg/mL leupeptine, and 5 μg/mL aprotinin. Nuclear extracts were prepared using Nuclear Extraction Kit (Panomics). Cell lysates were subjected to sodium dodecyl sulfate-polyacrylamide gel electrophoresis SDS-PAGE, transferred to nitrocellulose membranes, and immunoblotted with different antibodies: ATM, phospho-ATM (Ser1981), ATR, phospho-ATR (Ser428), CHK2, phospho-CHK2 (Thr68), CHK1, phospho-CHK1 (Ser296), p21, p53, phospho-p53 (ser127), STK4, LATS1, phospho-LATS1 (Ser909), phospho-ABL1 (Thr735), cleaved caspase 3, cleaved PARP, histone H3, SAPK/JNK, phospho-SAPK/JNK (Thr183/Tyr185), GM130, GAPDH, and α-tubulin (Cell Signaling); STK4, Nuclear Matrix Protein p84 (Abeam), p73 (BD), phospho-H2A.X (Ser139) (Millipore); as well as ABL1, BAX, Puma, Noxa, actin and nucleolin (Santa Cruz Biotechnology).

[1] = tested on: ALL (Jurkat) and AML (OCI/AML3) cell lines; experiment: YAP1 levels, cell number and apoptosis in ALL and AML cell lines; format: cell-based
[2] = tested on: KMS-20 cell line, with YAP1 deletion; experiment: Cell growth in YAP1-deleted KMS-20; format: cell-based; settings: KMS-20, YAP1 deleted
MM.1S cells = experiment: Apoptosis by Annexin V-FITC/PI staining, MM.1S; format: cell-based, human; settings: 10 μM, untreated 11%
Protocol: (§1) In particular, cells were washed twice with room-temperature PBS, resuspended in 100 μL of Annexin binding buffer, and stained with specific antibodies for 20 minutes.

U266 MM cell line = experiment: Apoptosis by Annexin V-FITC/PI staining, U266; format: cell-based; settings: 10 μM, untreated 10%
Protocol: as §1

[3] = tested on: leukemia and lymphoma cell lines; experiment: MTT growth inhibition and Annexin V-PI apoptosis in a leukemia and lymphoma cell line panel; format: cell-based; settings: cell lines where the DNA damage-ABL1-YAP1 axis was activated
RL = experiment: MTT / Annexin V-PI, RL; format: cell-based; settings: no nuclear ABL1
[4] = MTT viability assay, U266; format: cell-based; settings: human, U266 multiple myeloma cells, 10 μM
Protocol: Viability of MM cells was evaluated by 3-[4,5-dimethylthiazol-2-yl]-2,5-diphenyltetrazolium bromide (MTT) colorimetric survival assay. MM cells (20,000-50,000) were plated in 100 μL medium. At the various time points (24-96 hours), 10 μL 5 mg/mL MTT were added to plated cells. After 4 hour incubation at 37° C., medium was discarded and 100 μL MTT stop solution (Isopropanonol with […] Hcl) used to dissolve MTT metabolic products. Absorbance was read at 570 nm and background was subtracted at 630 nm, using spectrophotometer SPECTRAMAX M2 machine and Softmax Pro v5 software. Cellular growth was estimated by cell counting in triplicates, excluding dead cells stained by trypan blue.

HL-60 = experiment: MTT / Annexin V-PI, HL-60; format: cell-based; settings: HL-60, YAP1 basal expression

For `NS(=O)(=O)c1ccc(N/N=C2\C(=O)Nc3ccc4ncccc4c32)cc1` [GW305178X], the IC50 (STK4) was 12 nM, the “effect on cell growth / proliferation in MM cell lines” value (MM cell lines) was “reduced proliferation in most cell lines with low YAP1 levels” and the “YAP1 levels after treatment” value (YAP1; MM cells) was “robust increase in YAP1 levels”. The “YAP1 levels, cell number and apoptosis” value [1] was “increased YAP1 levels, reduced cell number, and enhanced apoptosis” and the “activity against KMS-20” value [2] was “not active”.
With `COc1cc(Nc2c(C#N)cnc3cc(OCCCN4CCN(C)CC4)c(OC)cc23)c(Cl)cc1Cl` [SKI-606] the “apoptosis (Annexin V-FITC/PI)” value (MM.1S cells) was 76%, the “apoptosis (Annexin V-PI)” value (U266 MM cell line) was 58% and the “cellular proliferation and survival” value [3] was “profoundly reduced”. The response to treatment (RL) was “did not respond to the treatment”, the viability at 24 h, 10 µM ([4]; 24 h, read-out: 24 hour viability (MTT, normalized to DMSO)) was 93.8% and the viability at 48 h, 10 µM ([4]; 48 h, read-out: 48 hour viability (MTT, normalized to DMSO)) was 76.1%. For the same compound, the viability at 72 h, 10 µM ([4]; 72 h, read-out: 72 hour viability (MTT, normalized to DMSO)) was 53.8%, the viability at 96 h, 10 µM ([4]; 96 h, read-out: 96 hour viability (MTT, normalized to DMSO)) was 28.5% and the response to treatment (HL-60) was “did not respond to the treatment”. For the same compound, the “YAP1 expression after treatment” value (YAP1; MM.1S and U266, 10 μM) was “significant increase of YAP1 expression”.
